US20100190794A1, “Herbicidally Active Composition” (BASF SE, priority 2007, published 2010)

Legend:
[1] = test system: BRAPL; test: greenhouse test, pre-emergence treatment; assay type: in vivo, Brachiaria plantaginea; conditions: 250 g/ha a.s., Use Example 16
Text: (§1) The culture containers used were plastic pots containing loamy sand with approximately 3.0% of humus as substrate. The seeds of the test plants were sown separately for each species.
(§2) For the pre-emergence treatment, the active compounds, suspended or emulsified in water, were applied directly after sowing by means of finely distributing nozzles. The containers were irrigated gently to promote germination and growth and subsequently covered with transparent plastic hoods until the plants had rooted. This cover caused uniform germination of the test plants unless this was adversely affected by the active compounds.
(§3) Depending on the species, the plants were kept at 10-25° C. and 20-35° C., respectively. The test period extended over 2 to 4 weeks. During this time, the plants were tended and their response to the individual treatments was evaluated.
(§4) Evaluation was carried out using a scale from 0 to 100. 100 means no emergence of the plants, or complete destruction of at least the above-ground parts, and 0 means no damage or normal course of growth. Good herbicidal activity is given at values of at least 70, and very good herbicidal activity is given at values of at least 85.
(§5) The respective stated components A and B, and if appropriate, C were formulated as a 5% by weight or 10% by weight strength emulsion concentrate or a commercially available formulation of component B was used and, with addition of the amount of solvent system, introduced into the spray liquor used for applying the active compound. In the examples, the solvent used was water.
(§6) The test period extended over 20 or 21 days. During this time, the plants were tended, and their reactions to the treatment with active compound was monitored.
(§7) What was evaluated was the damage by the chemical compositions using a scale of from 0 to 100%, in comparison to the untreated control plants. 0 means no damage, and 100 means complete destruction of the plants.
(§8) In the examples below, using the method of S. R. Colby (1967) “Calculating synergistic and antagonistic responses of herbicide combinations”, Weeds 15, p. 22 ff., the value E, which is expected if the activity of the individual active compounds is only additive, was calculated.
(§9) where X=percent activity using active compound A at an application rate a; Y=percent activity using active compound B at an application rate b; E=expected activity (in %) by A+B at application rates a+b.
(§10) If the value found in experiments is higher than the value E calculated according to Colby, a synergistic effect is present.

[2] = test system: DIGSA; test: greenhouse test, pre-emergence treatment; assay type: in vivo, Digitaria sanguinalis; conditions: for Herbicidal action in % after 21 days against DIGSA: Use Example 9
Text: as §1, §2, §3, §4, §5, §6, §7, §8, §9, §10

[3] = test system: LOLMU; test: greenhouse test, pre-emergence treatment; assay type: in vivo, Lolium multiflorum
Text: as §1, §2, §3, §4, §5, §6, §7, §8, §9, §10

[4] = test system: LOLMU; test: greenhouse test, post-emergence treatment; assay type: in vivo, Lolium multiflorum; conditions: Use Example 17
Procedure: as §1
(§11) For the post-emergence treatment, the test plants were grown to a plant height of from 3 to 15 cm, depending on the plant habit, and only then treated with the active compounds which had been suspended or emulsified in water. To this end, the test plants were either sown directly and grown in the same containers, or they were first grown separately as seedlings and transplanted into the test containers a few days prior to treatment.
as §3, §4, §5, §6, §7, §8, §9, §10

[5] = test system: DIGSA; test: greenhouse test, post-emergence treatment; assay type: in vivo, Digitaria sanguinalis; conditions: Use Example 18
Procedure: as §1, §11, §3
as §4, with “85. […]” for “85.”
as §6
What was evaluated was the damage by the chemical compositions using a scale of from 0 to 100%, in comparison to the untreated control plants. […]
In the examples below, using the method of S. R. Colby (1967) “Calculating synergistic and antagonistic responses of herbicide combinations”, Weeds 15, p. 22 ff., the value E, which is expected if the activity of the individual active compounds is only additive, was calculated. […]
as §10

[6] = test system: ALOMY; test: greenhouse test, pre-emergence treatment; assay type: in vivo, Alopecurus myosuroides
Text: as §1, §2, §3, §4, §5, §6, §7, §8, §9, §10

[7] = test system: ALOMY; test: greenhouse test, post-emergence treatment; assay type: in vivo, Alopecurus myosuroides; conditions: Use Example 17
Procedure: as §1, §11, §3, §4, §5, §6, §7, §8, §9, §10

[8] = test system: PHACA; test: greenhouse test, pre-emergence treatment; assay type: in vivo, Phalaris canariensis
Text: as §1, §2, §3, §4, §5, §6, §7, §8, §9, §10

[9] = test system: SETVI; test: greenhouse test, post-emergence treatment; assay type: in vivo, Setaria viridis
Procedure: as §1, §11, §3, §4, §5, §6, §7, §8, §9, §10

CN1C(=O)C(C)(Cc2ccccc2)N(C)C(=O)C1=Cc1ccccc1C#N (stereo not drawn) [Example 20, 2-[5-Benzyl-1,4,5-trimethyl-3,6-dioxopiperazin-2-ylidenemethyl]benzo-nitrile]
Herbicidal action in % after 20 days against BRAPL [1]: 85% | Herbicidal action in % after 20 days against DIGSA ([2]; 125 g/ha a.s., Use Example 5): 90% | Herbicidal action in % after 21 days against DIGSA ([2]; 125 g/ha a.s.): 90% | Herbicidal action in % after 20 days against DIGSA ([2]; 125 g/ha a.s., Use Example 14): 90% | Herbicidal action in % after 20 days against DIGSA ([2]; 250 g/ha a.s., Use Example 5): 100% | Herbicidal action in % after 21 days against DIGSA ([2]; 250 g/ha a.s.): 100% | Herbicidal action in % after 20 days against LOLMU ([3]; 125 g/ha a.s., Use Example 10): 0% | Herbicidal action in % after 21 days against LOLMU ([3]; 125 g/ha a.s., Use Example 11): 0% | Herbicidal action in % after 20 days against LOLMU ([3]; 125 g/ha a.s., Use Example 13): 0% | Herbicidal action in % after 20 days against LOLMU ([3]; 250 g/ha a.s., Use Example 10): 45% | Herbicidal action in % after 20 days against LOLMU ([3]; 250 g/ha a.s., Use Example 13): 45% | Herbicidal action in % after 20 days against LOLMU ([3]; 500 g/ha a.s., Use Example 1): 70% | Herbicidal action in % after 20 days against LOLMU ([4]; 125 g/ha a.s.): 15% | Herbicidal action in % after 20 days against LOLMU ([4]; 250 g/ha a.s.): 35% | Herbicidal action in % after 20 days against DIGSA ([5]; 62.5 g/ha a.s.): 45% | Herbicidal action in % after 20 days against DIGSA ([5]; 125 g/ha a.s.): 70% | Herbicidal action in % after 20 days against ALOMY ([6]; 62.5 g/ha a.s., Use Example 2): 45% | Herbicidal action in % after 20 days against ALOMY ([6]; 125 g/ha a.s., Use Example 2): 55% | Herbicidal action in % after 20 days against ALOMY ([6]; 125 g/ha a.s., Use Example 7): 40% | Herbicidal action in % after 20 days against ALOMY ([6]; 125 g/ha a.s., Use Example 10): 45% | Herbicidal action in % after 20 days against ALOMY ([6]; 125 g/ha a.s., Use Example 13): 45% | Herbicidal action in % after 20 days against ALOMY ([6]; 125 g/ha a.s., Use Example 15): 40% | Herbicidal action in % after 20 days against ALOMY ([6]; 250 g/ha a.s., Use Example 2): 85% | Herbicidal action in % after 20 days against ALOMY ([6]; 250 g/ha a.s., Use Example 4): 85% | Herbicidal action in % after 20 days against ALOMY ([6]; 250 g/ha a.s., Use Example 7): 90% | Herbicidal action in % after 20 days against ALOMY ([6]; 250 g/ha a.s., Use Example 10): 70% | Herbicidal action in % after 20 days against ALOMY ([6]; 250 g/ha a.s., Use Example 13): 70% | Herbicidal action in % after 20 days against ALOMY ([6]; 250 g/ha a.s., Use Example 15): 90% | Herbicidal action in % after 20 days against ALOMY ([7]; 125 g/ha a.s.): 40% | Herbicidal action in % after 20 days against ALOMY ([7]; 250 g/ha a.s.): 70% | Herbicidal action in % after 20 days against PHACA ([8]; 250 g/ha a.s., Use Example 4): 80% | Herbicidal action in % after 20 days against PHACA ([8]; 500 g/ha a.s., Use Example 1): 80% | Herbicidal action in % after 20 days against SETVI ([9]; 62.5 g/ha a.s., Use Example 18): 60% | Herbicidal action in % after 20 days against SETVI ([9]; 125 g/ha a.s., Use Example 17): 70% | Herbicidal action in % after 20 days against SETVI ([9]; 125 g/ha a.s., Use Example 18): 70% | Herbicidal action in % after 20 days against SETVI ([9]; 250 g/ha a.s., Use Example 17): 80%
